Article PMC11864979, “First-in-class ultralong-target-residence-time p38α inhibitors as a mitosis-targeted therapy for colorectal cancer” (Nature Cancer, 2025)
Where two headings read alike, the source gives them in different places.

Tests used:
Test in all cases: selectivity profiling in a panel of 340 wild-type kinases (Reaction Biology Europe)
Assay type in all cases: binding
[1] = biological target: T1, 340 wild-type kinases (Homo sapiens, UniProt P48729)
T1 construct: purchased Reaction Biology Europe

[2] = biological target: T2, 340 wild-type kinases (Homo sapiens, UniProt Q9BYP7)
T2 construct: purchased Reaction Biology Europe
T2 sequence (Q9BYP7 whole entry): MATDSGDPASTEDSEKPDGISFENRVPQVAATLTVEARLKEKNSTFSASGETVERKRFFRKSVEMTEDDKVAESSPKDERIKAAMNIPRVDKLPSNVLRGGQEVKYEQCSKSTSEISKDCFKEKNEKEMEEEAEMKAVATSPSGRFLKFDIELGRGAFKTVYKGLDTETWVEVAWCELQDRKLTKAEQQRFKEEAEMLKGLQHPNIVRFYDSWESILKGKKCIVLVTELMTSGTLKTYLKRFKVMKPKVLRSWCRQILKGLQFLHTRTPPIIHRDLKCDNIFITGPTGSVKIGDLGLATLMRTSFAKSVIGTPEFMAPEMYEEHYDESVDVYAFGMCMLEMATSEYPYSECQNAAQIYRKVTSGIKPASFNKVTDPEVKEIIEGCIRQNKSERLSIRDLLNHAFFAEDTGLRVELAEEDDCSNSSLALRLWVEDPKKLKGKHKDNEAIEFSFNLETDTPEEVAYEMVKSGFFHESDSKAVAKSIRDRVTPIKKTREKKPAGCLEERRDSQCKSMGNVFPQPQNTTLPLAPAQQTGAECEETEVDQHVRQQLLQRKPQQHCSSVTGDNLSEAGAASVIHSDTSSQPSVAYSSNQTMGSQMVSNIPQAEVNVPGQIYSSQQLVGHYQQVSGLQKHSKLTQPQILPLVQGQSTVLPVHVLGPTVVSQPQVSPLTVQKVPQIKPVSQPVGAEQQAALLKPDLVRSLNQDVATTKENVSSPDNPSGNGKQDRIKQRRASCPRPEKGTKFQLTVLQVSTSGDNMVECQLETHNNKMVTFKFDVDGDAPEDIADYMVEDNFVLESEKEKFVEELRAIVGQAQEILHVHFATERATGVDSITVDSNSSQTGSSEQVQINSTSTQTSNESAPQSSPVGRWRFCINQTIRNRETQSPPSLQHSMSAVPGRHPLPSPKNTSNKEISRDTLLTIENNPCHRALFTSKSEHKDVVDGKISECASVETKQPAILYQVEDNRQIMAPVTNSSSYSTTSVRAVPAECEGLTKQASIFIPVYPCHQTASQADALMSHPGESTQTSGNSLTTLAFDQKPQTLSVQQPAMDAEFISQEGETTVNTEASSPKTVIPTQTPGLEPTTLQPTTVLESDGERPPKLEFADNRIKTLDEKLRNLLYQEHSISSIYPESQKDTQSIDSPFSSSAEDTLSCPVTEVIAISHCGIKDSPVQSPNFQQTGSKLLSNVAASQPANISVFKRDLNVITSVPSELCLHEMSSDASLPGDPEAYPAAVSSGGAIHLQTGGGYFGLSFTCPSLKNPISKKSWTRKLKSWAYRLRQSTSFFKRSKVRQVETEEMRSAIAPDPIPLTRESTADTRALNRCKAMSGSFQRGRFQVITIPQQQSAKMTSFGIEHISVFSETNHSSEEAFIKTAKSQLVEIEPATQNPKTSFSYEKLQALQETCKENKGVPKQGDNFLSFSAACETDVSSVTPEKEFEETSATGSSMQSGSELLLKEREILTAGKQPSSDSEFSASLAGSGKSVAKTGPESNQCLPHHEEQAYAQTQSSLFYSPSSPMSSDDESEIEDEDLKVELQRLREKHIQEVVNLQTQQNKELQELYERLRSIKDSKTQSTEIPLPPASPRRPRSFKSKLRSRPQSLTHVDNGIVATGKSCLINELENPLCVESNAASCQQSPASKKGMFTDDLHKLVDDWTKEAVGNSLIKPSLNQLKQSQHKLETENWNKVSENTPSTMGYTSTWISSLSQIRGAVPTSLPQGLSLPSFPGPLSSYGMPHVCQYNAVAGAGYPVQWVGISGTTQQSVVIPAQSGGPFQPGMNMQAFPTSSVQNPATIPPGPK

[3] = biological target: T3, 340 wild-type kinases (Homo sapiens, UniProt P68400)
T3 construct: purchased Reaction Biology Europe
T3 sequence (P68400 whole entry): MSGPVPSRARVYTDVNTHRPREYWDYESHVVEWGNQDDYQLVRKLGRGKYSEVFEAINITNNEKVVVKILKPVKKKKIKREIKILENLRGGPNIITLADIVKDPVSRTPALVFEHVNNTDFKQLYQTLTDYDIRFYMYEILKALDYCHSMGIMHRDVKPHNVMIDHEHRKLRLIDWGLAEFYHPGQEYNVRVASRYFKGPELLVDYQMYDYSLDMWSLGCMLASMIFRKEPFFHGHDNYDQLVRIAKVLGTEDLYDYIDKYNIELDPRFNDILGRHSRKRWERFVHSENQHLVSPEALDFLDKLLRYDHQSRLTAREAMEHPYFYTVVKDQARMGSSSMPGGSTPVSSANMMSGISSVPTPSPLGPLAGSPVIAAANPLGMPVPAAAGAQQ

[4] = biological target: T4, 340 wild-type kinases (Homo sapiens, UniProt Q5TCY1)
T4 construct: purchased Reaction Biology Europe

[5] = biological target: T5, 340 wild-type kinases (Homo sapiens, UniProt O96013)
T5 construct: purchased Reaction Biology Europe
T5 sequence (O96013 whole entry): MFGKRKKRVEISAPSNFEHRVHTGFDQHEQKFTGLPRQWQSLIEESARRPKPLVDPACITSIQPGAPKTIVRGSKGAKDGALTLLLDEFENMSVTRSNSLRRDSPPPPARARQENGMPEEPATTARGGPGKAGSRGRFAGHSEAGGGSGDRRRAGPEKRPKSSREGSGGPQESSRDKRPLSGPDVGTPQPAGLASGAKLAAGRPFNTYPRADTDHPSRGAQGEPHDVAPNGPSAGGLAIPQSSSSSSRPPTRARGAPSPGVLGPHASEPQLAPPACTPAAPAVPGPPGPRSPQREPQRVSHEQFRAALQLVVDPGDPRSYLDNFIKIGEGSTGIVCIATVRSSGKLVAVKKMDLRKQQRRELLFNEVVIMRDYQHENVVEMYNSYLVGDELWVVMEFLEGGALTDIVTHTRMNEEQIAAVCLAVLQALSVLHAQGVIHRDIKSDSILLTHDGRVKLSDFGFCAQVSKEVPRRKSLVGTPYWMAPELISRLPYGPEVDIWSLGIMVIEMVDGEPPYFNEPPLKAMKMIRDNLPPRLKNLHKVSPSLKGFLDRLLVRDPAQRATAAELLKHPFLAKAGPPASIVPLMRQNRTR

[6] = biological target: T6, 340 wild-type kinases (Homo sapiens, UniProt Q00526)
T6 construct: purchased Reaction Biology Europe
T6 sequence (Q00526 whole entry): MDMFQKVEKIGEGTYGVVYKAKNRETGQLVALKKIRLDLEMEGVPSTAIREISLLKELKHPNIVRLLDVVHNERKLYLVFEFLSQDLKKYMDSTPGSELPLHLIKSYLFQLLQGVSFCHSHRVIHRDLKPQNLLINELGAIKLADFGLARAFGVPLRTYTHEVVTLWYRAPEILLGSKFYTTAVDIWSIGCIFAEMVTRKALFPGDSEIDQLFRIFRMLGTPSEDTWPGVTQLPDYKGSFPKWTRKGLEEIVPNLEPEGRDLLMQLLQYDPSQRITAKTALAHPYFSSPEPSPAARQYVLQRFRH

[7] = biological target: T7, 340 wild-type kinases (Homo sapiens, UniProt Q9UQB9)
T7 construct: purchased Reaction Biology Europe
T7 sequence (Q9UQB9 1-309): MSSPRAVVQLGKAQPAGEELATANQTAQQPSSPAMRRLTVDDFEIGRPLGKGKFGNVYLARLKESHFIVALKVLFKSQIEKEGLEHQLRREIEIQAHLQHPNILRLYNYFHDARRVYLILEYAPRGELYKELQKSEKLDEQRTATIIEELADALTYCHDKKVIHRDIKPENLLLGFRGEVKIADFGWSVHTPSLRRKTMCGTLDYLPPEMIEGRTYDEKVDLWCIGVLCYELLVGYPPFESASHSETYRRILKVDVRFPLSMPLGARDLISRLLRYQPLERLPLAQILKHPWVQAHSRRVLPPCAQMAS

[8] = biological target: T8, 340 wild-type kinases (Homo sapiens, UniProt P50750)
T8 construct: purchased Reaction Biology Europe
T8 sequence (P50750 whole entry): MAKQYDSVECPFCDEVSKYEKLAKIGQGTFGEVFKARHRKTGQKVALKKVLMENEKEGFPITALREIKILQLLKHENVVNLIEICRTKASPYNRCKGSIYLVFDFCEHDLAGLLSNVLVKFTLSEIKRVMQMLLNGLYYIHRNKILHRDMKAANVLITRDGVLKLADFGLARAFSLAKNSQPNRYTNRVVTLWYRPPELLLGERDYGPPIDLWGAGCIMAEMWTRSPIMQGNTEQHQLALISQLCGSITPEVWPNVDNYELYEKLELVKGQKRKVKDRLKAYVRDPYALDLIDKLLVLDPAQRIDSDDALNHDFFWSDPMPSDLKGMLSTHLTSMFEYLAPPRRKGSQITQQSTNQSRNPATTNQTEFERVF

[9] = biological target: T9, 340 wild-type kinases (Homo sapiens, UniProt Q14289)
T9 construct: purchased Reaction Biology Europe
T9 sequence (Q14289 whole entry): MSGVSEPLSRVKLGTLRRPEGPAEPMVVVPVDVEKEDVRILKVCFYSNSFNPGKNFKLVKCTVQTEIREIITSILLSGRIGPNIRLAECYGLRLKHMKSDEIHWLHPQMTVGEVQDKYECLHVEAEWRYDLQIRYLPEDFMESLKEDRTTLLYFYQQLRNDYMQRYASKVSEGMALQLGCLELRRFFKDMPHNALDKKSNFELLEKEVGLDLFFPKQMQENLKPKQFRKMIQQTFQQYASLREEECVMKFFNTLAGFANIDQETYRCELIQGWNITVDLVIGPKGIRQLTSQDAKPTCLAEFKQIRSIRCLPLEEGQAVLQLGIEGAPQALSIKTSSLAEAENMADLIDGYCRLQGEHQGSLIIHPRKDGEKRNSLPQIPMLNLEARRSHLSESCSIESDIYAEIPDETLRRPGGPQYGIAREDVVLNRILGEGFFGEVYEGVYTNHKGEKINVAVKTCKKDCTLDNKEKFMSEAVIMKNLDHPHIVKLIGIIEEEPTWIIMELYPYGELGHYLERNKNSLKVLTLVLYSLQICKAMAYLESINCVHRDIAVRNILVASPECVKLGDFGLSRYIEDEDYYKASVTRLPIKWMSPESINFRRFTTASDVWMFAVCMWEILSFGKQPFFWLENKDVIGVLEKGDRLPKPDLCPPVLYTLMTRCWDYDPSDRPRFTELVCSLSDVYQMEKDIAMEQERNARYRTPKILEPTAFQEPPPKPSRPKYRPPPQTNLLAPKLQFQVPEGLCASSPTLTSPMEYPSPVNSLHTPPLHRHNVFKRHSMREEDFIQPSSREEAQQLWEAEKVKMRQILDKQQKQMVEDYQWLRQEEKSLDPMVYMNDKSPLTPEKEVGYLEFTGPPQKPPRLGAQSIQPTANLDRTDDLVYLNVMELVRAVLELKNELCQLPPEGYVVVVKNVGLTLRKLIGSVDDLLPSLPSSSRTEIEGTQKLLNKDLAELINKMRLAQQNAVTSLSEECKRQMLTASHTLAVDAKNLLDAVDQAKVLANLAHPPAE

[10] = biological target: T10, 340 wild-type kinases (Homo sapiens, UniProt O15146)
T10 construct: purchased Reaction Biology Europe
T10 sequence (O15146 24-869): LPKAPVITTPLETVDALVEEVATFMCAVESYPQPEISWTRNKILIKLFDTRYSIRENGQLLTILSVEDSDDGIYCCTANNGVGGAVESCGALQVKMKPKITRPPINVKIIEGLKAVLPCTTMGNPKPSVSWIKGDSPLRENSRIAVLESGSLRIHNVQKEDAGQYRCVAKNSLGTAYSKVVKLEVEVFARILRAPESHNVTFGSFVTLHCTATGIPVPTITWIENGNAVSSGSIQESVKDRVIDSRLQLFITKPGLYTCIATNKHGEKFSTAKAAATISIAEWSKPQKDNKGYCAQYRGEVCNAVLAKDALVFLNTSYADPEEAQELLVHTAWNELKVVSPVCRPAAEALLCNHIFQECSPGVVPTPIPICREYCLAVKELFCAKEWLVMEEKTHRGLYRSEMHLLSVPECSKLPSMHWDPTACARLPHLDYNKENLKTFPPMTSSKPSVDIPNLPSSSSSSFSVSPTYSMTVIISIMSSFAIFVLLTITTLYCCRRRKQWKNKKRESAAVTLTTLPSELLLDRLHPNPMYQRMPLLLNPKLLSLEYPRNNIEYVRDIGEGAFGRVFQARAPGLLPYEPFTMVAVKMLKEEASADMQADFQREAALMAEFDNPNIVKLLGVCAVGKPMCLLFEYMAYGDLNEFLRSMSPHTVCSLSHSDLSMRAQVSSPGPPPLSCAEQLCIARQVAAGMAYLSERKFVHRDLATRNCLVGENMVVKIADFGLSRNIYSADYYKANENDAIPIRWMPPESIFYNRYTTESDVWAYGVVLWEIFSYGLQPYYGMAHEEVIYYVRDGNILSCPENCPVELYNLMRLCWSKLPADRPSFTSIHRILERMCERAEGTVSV

[11] = biological target: T11, 340 wild-type kinases (Homo sapiens, UniProt P50613)
T11 construct: purchased Reaction Biology Europe
T11 sequence (P50613 whole entry): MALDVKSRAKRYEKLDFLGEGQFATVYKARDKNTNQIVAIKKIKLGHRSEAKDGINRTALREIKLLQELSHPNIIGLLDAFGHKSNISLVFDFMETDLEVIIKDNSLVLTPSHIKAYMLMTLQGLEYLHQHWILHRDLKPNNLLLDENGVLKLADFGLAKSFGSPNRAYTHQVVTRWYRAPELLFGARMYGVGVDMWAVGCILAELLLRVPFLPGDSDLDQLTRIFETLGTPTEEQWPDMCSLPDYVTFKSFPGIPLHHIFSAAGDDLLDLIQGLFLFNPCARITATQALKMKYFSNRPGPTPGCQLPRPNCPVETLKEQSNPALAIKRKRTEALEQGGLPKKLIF

## CNC(=O)c1ccc2c(c1)C(=O)c1ccc(Nc3ccc(F)c(NC(=O)C4CC4)c3)cc1CC2 [Compound 2015]
[1]; 0.2 µM 2015, read-out: CK1alpha1 residual activity
  remaining activity at 0.2 µM: 98.6%
[1]; CK1alpha1, 0.2 µM, read-out: residual activity
  remaining activity at 0.2 µM: 98.6%
[1]; CK1alpha1, 1 µM, read-out: residual activity
  remaining activity at 1 µM: 94.9%
[2]; 0.2 µM 2015, read-out: WNK3 residual activity
  remaining activity at 0.2 µM: 121%
[2]; 1 µM 2015, read-out: WNK3 residual activity
  remaining activity at 1 µM: 113%
[2]; WNK3, 0.2 µM, read-out: residual activity
  remaining activity at 0.2 µM: 121%
[2]; WNK3, 1 µM, read-out: residual activity
  remaining activity at 1 µM: 113%
[3]; 0.2 µM 2015, read-out: CK2alpha1 residual activity
  remaining activity at 0.2 µM: 98.8%
[3]; 1 µM 2015, read-out: CK2alpha1 residual activity
  remaining activity at 1 µM: 95.8%
[3]; CK2alpha1, 0.2 µM, read-out: residual activity
  remaining activity at 0.2 µM: 98.8%
[3]; CK2alpha1, 1 µM, read-out: residual activity
  remaining activity at 1 µM: 95.8%
[4]; 0.2 µM 2015, read-out: TTBK1 residual activity
  remaining activity at 0.2 µM: 88.5%
[4]; 1 µM 2015, read-out: TTBK1 residual activity
  remaining activity at 1 µM: 93.4%
[4]; TTBK1, 0.2 µM, read-out: residual activity
  remaining activity at 0.2 µM: 88.5%
[4]; TTBK1, 1 µM, read-out: residual activity
  remaining activity at 1 µM: 93.4%
[5]; 0.2 µM 2015, read-out: PAK4 residual activity
  remaining activity at 0.2 µM: 92.5%
[5]; 1 µM 2015, read-out: PAK4 residual activity
  remaining activity at 1 µM: 85.8%
[5]; PAK4, 0.2 µM, read-out: residual activity
  remaining activity at 0.2 µM: 92.5%
[5]; PAK4, 1 µM, read-out: residual activity
  remaining activity at 1 µM: 85.8%
[6]; 0.2 µM 2015, read-out: CDK3/CycC residual activity
  remaining activity at 0.2 µM: 104%
[6]; 0.2 µM 2015, read-out: CDK3/CycE1 residual activity
  remaining activity at 0.2 µM: 88.9%
[6]; 1 µM 2015, read-out: CDK3/CycC residual activity
  remaining activity at 1 µM: 96.3%
[6]; 1 µM 2015, read-out: CDK3/CycE1 residual activity
  remaining activity at 1 µM: 81.7%
[6]; CDK3/CycC, 0.2 µM, read-out: residual activity
  remaining activity at 0.2 µM: 104%
[6]; CDK3/CycC, 1 µM, read-out: residual activity
  remaining activity at 1 µM: 96.3%
[6]; CDK3/CycE1, 0.2 µM, read-out: residual activity
  remaining activity at 0.2 µM: 88.9%
[6]; CDK3/CycE1, 1 µM, read-out: residual activity
  remaining activity at 1 µM: 81.7%
[7]; 0.2 µM 2015, read-out: AuroraC residual activity
  remaining activity at 0.2 µM: 88.5%
[7]; 1 µM 2015, read-out: AuroraC residual activity
  remaining activity at 1 µM: 96.3%
[7]; AuroraC, 0.2 µM, read-out: residual activity
  remaining activity at 0.2 µM: 88.5%
[7]; AuroraC, 1 µM, read-out: residual activity
  remaining activity at 1 µM: 96.3%
[8]; 0.2 µM 2015, read-out: CDK9/CycK residual activity
  remaining activity at 0.2 µM: 94.2%
[8]; 0.2 µM 2015, read-out: CDK9/CycT1 residual activity
  remaining activity at 0.2 µM: 107%
[8]; 1 µM 2015, read-out: CDK9/CycK residual activity
  remaining activity at 1 µM: 95.1%
[8]; 1 µM 2015, read-out: CDK9/CycT1 residual activity
  remaining activity at 1 µM: 94%
[8]; CDK9/CycK, 0.2 µM, read-out: residual activity
  remaining activity at 0.2 µM: 94.2%
[8]; CDK9/CycK, 1 µM, read-out: residual activity
  remaining activity at 1 µM: 95.2%
[8]; CDK9/CycT1, 0.2 µM, read-out: residual activity
  remaining activity at 0.2 µM: 107%
[8]; CDK9/CycT1, 1 µM, read-out: residual activity
  remaining activity at 1 µM: 94%
[9]; 0.2 µM 2015, read-out: PYK2 residual activity
  remaining activity at 0.2 µM: 98.8%
[9]; 1 µM 2015, read-out: PYK2 residual activity
  remaining activity at 1 µM: 86.1%
[9]; PYK2, 0.2 µM, read-out: residual activity
  remaining activity at 0.2 µM: 98.8%
[9]; PYK2, 1 µM, read-out: residual activity
  remaining activity at 1 µM: 86.1%
[10]; 0.2 µM 2015, read-out: MUSK residual activity
  remaining activity at 0.2 µM: 87.5%
[10]; 1 µM 2015, read-out: MUSK residual activity
  remaining activity at 1 µM: 87.3%
[10]; MUSK, 0.2 µM, read-out: residual activity
  remaining activity at 0.2 µM: 87.5%
[10]; MUSK, 1 µM, read-out: residual activity
  remaining activity at 1 µM: 87.3%
[11]; 0.2 µM 2015, read-out: CDK7/CycH/MAT1 residual activity
  remaining activity at 0.2 µM: 94%
[11]; 1 µM 2015, read-out: CDK7/CycH/MAT1 residual activity
  remaining activity at 1 µM: 91.1%
[11]; CDK7/CycH/MAT1, 0.2 µM, read-out: residual activity
  remaining activity at 0.2 µM: 94%
[11]; CDK7/CycH/MAT1, 1 µM, read-out: residual activity
  remaining activity at 1 µM: 91.2%
